Read-outs that look alike come from different tables or passages of the source.
Assays:
human CB2 receptors = target: T1, human CB2 receptors (Homo sapiens, UniProt P34972); parameters: method as in PMID 27527584, PMID 25769232; details: read-out: hCB2 CHO Membranes Ki; [3H]-CP-55,940 competition binding; mean ± SEM; data elaborated from ref [15],[33]; cited from earlier work
T1 construct: host or cells: CHO cells

CD-1 mice [1] = system: CD-1 mice; parameters: method as in PMID 25769232, PMID 25987201; details: ED50 + SEM, data elaborated from ref [33],[34]; cited from earlier work
CD-1 mice [2] = system: CD-1 mice; parameters: method as in PMID 25769232, PMID 25987201; details: ED50 + SEM, data elaborated from ref [33],[34]; cited from earlier work; remark: listed apart in the source
mouse CB1 receptors [3] = target: T2, mouse CB1 receptors (Mus musculus, UniProt P47746); parameters: method as in PMID 27527584, PMID 25769232; details: read-out: Mouse Cortex Membranes CB1 Ki; [3H]-CP-55,940 competition binding; mean ± SEM; data elaborated from ref [15],[33]; cited from earlier work
T2 construct: membranes from the mouse brain and spleen were used, respectively; from tissue

CD-1 mice [4] = assay: Acoustic response (startle reflex) test; assay type: in vivo, mouse
CD-1 mice [5] = assay: Visual placing response test; assay type: in vivo, mouse
mouse CB1 receptors [6] = target: T2, mouse CB1 receptors; assay: [3H]-CP-55,940 competition binding, mouse brain (cortex) membranes
Experimental: (§1) Following excision from mice, tissues were suspended in 50 mM Tris HCl, pH 7.4, at 4 °C. The mouse brain and spleen tissues were homogenized with a Polytron and subsequently centrifuged for 10 min at 2000× g. The resulting supernatants were filtered and centrifuged for 20 min at 40,000× g, and the pellets were used for competition binding experiments.
(§2) Competition binding experiments were carried out by incubating 0.5 nM [3H]-CP-55,940 (Perkin Elmer Life and Analytical Sciences, Waltham, MA, USA) and different concentrations of the tested compounds for 90 or 60 min at 30 °C for CB1 or CB2 receptors, respectively. […] Non-specific binding was determined in the presence of 1 μM WIN 55,212-2 [92]. Bound and free radioactivity were separated by filtering the assay mixture through Whatman GF/C glass fiber filters using a Brandel cell harvester (Brandel Instruments, Unterföhring, Germany). The filter-bound radioactivity was counted using a Packard Tri Carb 2810 TR scintillation counter (Perkin Elmer Life and Analytical Sciences, Waltham, MA, USA).
(§3) The protein concentration was determined according to a Bio-Rad method with bovine serum albumin as a reference standard. Inhibitory binding constants, Ki, were calculated from the IC50 values according to the Cheng and Prusoff equation:Ki = IC50/(1 + [C*]/KD*) where [C*] is the concentration of the radioligand and KD* its dissociation constant. […]

mouse CB2 receptors = target: T3, mouse CB2 receptors (Mus musculus, UniProt P47936); assay: [3H]-CP-55,940 competition binding, mouse spleen membranes
T3 construct: membranes from the mouse brain and spleen were used, respectively; from tissue; host or cells: mouse spleen membranes, CD-1 mice
Experimental: as §1, §2, §3

CD-1 mice [7] = assay: Tail pinch test (acute mechanical nociception); assay type: in vivo, mouse
Experimental: The motor responses of the animal to different visual and acoustic stimuli were evaluated according to the procedure described in our previous studies. To reduce the number of animals used, mice were evaluated in functional observational tests carried out in a consecutive manner according to the following time scheme: Observation of visual object and acoustic responses and breath rate were measured at 0, 10, 30, 60, 120, 180, 240, and 300 min after injections. Visual placing response was measured at 0, 15, 35, 70, 125, 185, 245, and 305 min after injection. Core temperature was measured at 25, 45, 85, 140, 200, 260, and 320 min after injection. The tail pinch test was measured at 35, 55, 90, 145, 205, 265, and 325 min after injection, and the valuation of number of steps in the drag test was measured at 45, 75, 105, 160, 220, 280, and 340 min after injection.
The tail pinch test is used for evaluating acute mechanical nociception. A special rigid probe connected to a digital dynamometer (ZP-50N, 441-8077, Toyohashi, Aichi, Japan) was gently placed on the tail (in the distal portion), and progressive pressure was applied. When the […] flicked its tail, the pressure was stopped, and the digital instrument saved the maximum peak of weight supported (g/force). A cut-off (500 g/force) was set to avoid tissue damage. The test was repeated three times, and the final value was calculated with the average of three obtained scores.
Data are expressed in arbitrary units (visual objects and acoustic responses) and percentage of baseline (visual placing response, breath rate, and drag test). Core temperature values were expressed as the difference between control temperature (before injection) and temperature following drug administration (Δ °C). Antinociception (tail pinch tests) was calculated as percentage of maximal possible effect:EMax% = [(test − control latency)/(cut off time − control)] × 100
All data are shown as mean ± SEM of 8 independent experimental replications. […] ED50 (dose of agonist to obtain 50% of the overall mean effect) values were calculated by non-linear regression analysis of dose–response data performed using Prism software (GraphPad Prism, San Diego, CA, USA). The calculation of JWH-018 ED50 values was based on the results of previous studies. Curves have been compared, when possible, performing the F test (curve comparison). All statistical analysis was performed using the program Prism 8.0 software (GraphPad Prism, San Diego, CA, USA).

[8] = 0.01–30 mg/kg i.p., monitored over 5 h
[9] = Mus musculus, ip, mice, ED50 + SEM

T2 sequence (P47746 whole entry): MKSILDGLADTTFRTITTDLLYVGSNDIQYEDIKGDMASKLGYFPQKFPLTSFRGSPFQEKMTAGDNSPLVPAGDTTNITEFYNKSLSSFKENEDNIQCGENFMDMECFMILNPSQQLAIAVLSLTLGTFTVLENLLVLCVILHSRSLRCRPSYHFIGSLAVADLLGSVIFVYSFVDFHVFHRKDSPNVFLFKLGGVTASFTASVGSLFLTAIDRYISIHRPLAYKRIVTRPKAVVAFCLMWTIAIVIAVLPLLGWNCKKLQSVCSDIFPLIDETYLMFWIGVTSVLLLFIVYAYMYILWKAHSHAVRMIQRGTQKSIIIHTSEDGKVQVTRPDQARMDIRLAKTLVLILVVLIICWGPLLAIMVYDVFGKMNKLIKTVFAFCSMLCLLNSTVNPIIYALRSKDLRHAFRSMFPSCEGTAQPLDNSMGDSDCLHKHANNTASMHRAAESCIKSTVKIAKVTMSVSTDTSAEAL
T3 sequence (P47936 whole entry): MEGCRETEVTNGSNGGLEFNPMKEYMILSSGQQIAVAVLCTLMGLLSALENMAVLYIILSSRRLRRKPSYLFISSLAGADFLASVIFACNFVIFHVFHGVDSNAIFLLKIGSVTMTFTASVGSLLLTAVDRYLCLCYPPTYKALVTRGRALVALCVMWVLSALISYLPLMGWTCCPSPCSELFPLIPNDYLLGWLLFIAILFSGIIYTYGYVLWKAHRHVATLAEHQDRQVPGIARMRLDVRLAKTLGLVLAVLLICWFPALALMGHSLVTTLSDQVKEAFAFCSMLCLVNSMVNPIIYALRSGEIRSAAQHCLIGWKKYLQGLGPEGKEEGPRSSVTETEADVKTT
T1 sequence (P34972 whole entry): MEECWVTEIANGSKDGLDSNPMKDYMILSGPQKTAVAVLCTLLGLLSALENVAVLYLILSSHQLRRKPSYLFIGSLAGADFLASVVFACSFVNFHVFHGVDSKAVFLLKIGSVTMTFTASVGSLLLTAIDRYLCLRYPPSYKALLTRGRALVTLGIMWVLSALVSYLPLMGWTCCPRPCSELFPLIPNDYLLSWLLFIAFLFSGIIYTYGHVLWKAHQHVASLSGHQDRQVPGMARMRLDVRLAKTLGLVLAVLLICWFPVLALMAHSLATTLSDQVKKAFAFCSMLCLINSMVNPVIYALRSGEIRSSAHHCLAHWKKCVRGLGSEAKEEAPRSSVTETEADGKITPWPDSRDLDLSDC

Row | SMILES | Ki (human CB2 receptors) [nM] | ED50 Tail Pinch (CD-1 mice [1]) [mg/kg] | ED50 Drag Test (CD-1 mice [2]) [mg/kg] | Ki (mouse CB1 receptors [3]) [nM] | effect on acoustic response (CD-1 mice [4]; [8]) | ED50 (CD-1 mice [4]; [9]) [mg/kg] | effect on visual placing response (CD-1 mice [5]; [8]) | ED50 (CD-1 mice [5]; [9]) [mg/kg] | lowest dose tested with significant inhibitory effect on visual placing response (CD-1 mice [5]; i.p.) [mg/kg] | Ki (mouse CB1 receptors [6]) [nM] | Ki (mouse CB2 receptors) [nM] | effect on threshold to acute mechanical pain stimulus (tail pinch) (CD-1 mice [7]; [8]) | ED50 (CD-1 mice [7]; [9]) [mg/kg] | lowest dose from which increased pain threshold to acute mechanical stimulus was observed (CD-1 mice [7]; i.p.) [mg/kg] | time of maximum analgesic effect (tail pinch) (CD-1 mice [7]; maximum dose of 30 mg/kg i.p.) [min]
1 | CCCCCn1cc(C(=O)c2cccc3ccccc23)c2ccccc21 [JWH-018, 1-naphthalenyl(1-pentyl-1H-indol-3-yl)-methanone] | 8.63 ± 0.69 | 1.8 ± 0.11 | 2.4 ± 0.12 | 5.82 ± 0.44 |  |  |  |  |  |  |  |  |  |  | 
2 | CCCCCn1cc(Cc2cccc3ccccc23)c2ccccc21 [JWH-175, 3-(1-naphthalenylmethyl)-1-pentyl-1H-indole] |  |  |  |  | dose-dependently reduced | 4 ± 0.03 | dose-dependently reduced the visual placing response | 5.2 ± 0.08 | 0.01 | 33.6 ± 2.4 | 487 ± 39 | dose-dependently increased the threshold to acute mechanical pain stimulus | 4 ± 0.12 | 0.1 | 265

From publication PMC9318133 (International Journal of Molecular Sciences, 2022)
